This note sets out measurements from a melting point compilation (Tetko et al.; mined from patent text by program, amines drawn as free bases though some values may be those of a salt).

By melting point is commonly meant the temperature, or range, at which the solid turns liquid.

For `CCOC(=O)C(C)OCC#Cc1cc(Cl)ccc1NS(=O)(=O)c1ccc2ncsc2c1` (stereo not drawn), the melting point is 166 to 168 °C.
For `O=C(Cc1ccc(Cl)cc1)NCc1cccc2c1C(=O)N(C1CCC(=O)NC1=O)C2=O` (stereo not drawn) the value was 243 to 245 °C; for `Oc1cc2c(cc1O)CN(c1ncnc3c(N4CCOCC4)nc(Cl)nc13)CC2`, 187 to 189 °C.
Then `COc1ccc2c(c1)C(C(=O)O)CCC2` (stereo not drawn), with 126 to 127 °C; and `OC(CCCN1CCc2c(c3cc(F)ccc3n2-c2ccc(F)cc2)C1)c1ccc(F)cc1` (stereo not drawn), with 145 to 149 °C; and `Cc1ccc(-c2ncc3c(n2)CCCC3)nc1Br`, with 125 to 128 °C.
For `CCOC(=O)c1cn(-c2cccc(OC)c2)cn1` the value was 95 to 96 °C; for `CCCCN1C(N)=NS(=O)(=O)N=C1Oc1cccc(C)c1`, 208 to 213 °C.
For the compound `Cc1c(Cl)cccc1N1C(=O)CN(c2ccccc2)C1=S`, the melting point fell in the range of 154 to 156 °C.
Then `NC(=O)c1ccc(Cl)c([N+](=O)[O-])c1N1CC1`, with 216 °C; and `CC(C)(C)OC(=O)NCCCCC(=O)NCCC(=O)OCc1ccccc1`, with 69 to 70 °C.
With `C=CCn1c(C)nc2c3c(c(C(=O)OCC)cc21)CCC1(Cc2ccccc2C1)N3`, the melting point amounted to 150 °C.
`N#Cc1cc2[nH]c(=O)c(=O)n(C3CCCCC3)c2c2ccccc12` displayed a melting point of over 300 °C.
For `CC(C)(C)OC(=O)N1C[C@@H]2OCc3cnnn3[C@H]2C1` the value was 155 to 157 °C.
`COc1cc(-c2nn(C)c(C(F)(F)F)c2Cl)c(F)cc1Cl` came in with a melting point of 70 to 71 °C.
`Cc1noc(-c2ccccc2NC(=O)OC2CCNCC2)n1` came in with a melting point of 141 to 142 °C.
For `CC(C)c1nn(-c2ccc(C(F)(F)F)cn2)cc1CCCCOc1ccccc1CC(=O)O` the value was 125 to 126 °C; for `COc1c(CC(=O)O)c2c(c3c1OC(C)(C)C3)C(c1ccccc1)=NC(C)(C)C2`, 225 to 245 °C; for `CON(C)C(=O)C(O)CNC(=O)c1cc2cc(Cl)ccc2[nH]1` (racemic), 192 °C.
Then `O=c1n(-c2ccc(OCC(F)(F)C(F)F)cc2)cnn1CC(O)(Cn1cncn1)c1ccc(F)cc1F` (racemic), with 79 to 80 °C; and `CC(C)NC1=NS(=O)(=O)c2cc(F)c(Cl)cc2N1`, with 282 to 285 °C.
For `COc1cc(-c2cc(=O)c3ccccc3o2)cc([N+](=O)[O-])c1OC`, the melting point lay in the range of 216 to 217 °C.
Then `CC(C)(C)OC(=O)CN(C(=O)CNC(=O)Nc1cnc2ccccc2c1)c1ccccc1`, with 191 °C; and `CC(=O)c1ccc2c(c1)C(c1ccccn1)CC(C)(C)O2` (stereo not drawn), with 102 to 105 °C.
`CCCCn1ccc(-c2ccc(Oc3ccnc(C)c3)c(F)c2)c(C#N)c1=O` registered a melting point of 125 °C.
Then `CCOC(=O)C1=C(C)NC(N)=C(C(=O)OCC)C1c1ccccc1C` (stereo not drawn), with 130 °C.
Then `C=C1CC2C(CCC3(C)C2CCC3(OC(=O)CCCCC)C(C)=O)C2(COC(C)=O)CCC(=O)C=C12` (stereo not drawn), with 111 to 112 °C; and `CS(=O)(=O)c1cccc(NC(=O)c2cnn3c(C(F)(F)F)cc(-c4ccc(F)c(F)c4)nc23)c1`, with 256 °C; and `C1=CCC(Cc2ccc(-c3ccccc3)cc2)C1`, with 47 to 48 °C.
For `CC(C)COC(=O)C(=O)c1csc(N)n1` the value was 105 to 108 °C; for `CCN1CCCC1CNC(=O)c1cc(S(N)(=O)=O)c(OC)c2c1OCCO2` (stereo not drawn), 110 to 115 °C.
Regarding `CCC(=O)NCCC1=C(Cc2ccccc2)Cc2ccc(OC)cc21`, the melting point lay within 149 to 151 °C.
`CS(=O)(=O)Nc1cccc(Nc2nc(NCc3cccc(C#N)c3)c3nc[nH]c3n2)c1` registered a melting point of 128 to 131 °C.
For `COc1cccc(C(O)C2CCN(CCc3ccc(F)cc3)CC2)c1OC` (stereo not drawn) the value was 114 to 116 °C; for `Cc1nn(C)c(C)c1N=C=S`, 51 °C.
Then `CC(=O)N1CCCCc2ccc(/C=C/CN(C)C)cc21`, with 87 to 88 °C.
For `CCc1nc2nc3cc(Cl)ccc3nc2n1C(=O)c1ccccc1Br` the value was 130 to 132 °C; for `O=C(CCc1ccccc1)Nc1ccc(CN2C(=O)[C@H]3CCC[C@H]3N(C(=O)CN3C(=O)c4ccccc4C3=O)c3ccccc32)cc1` (relative stereo), 222 °C; for `COc1ccc(N(c2ccc(-c3ccc(N(c4ccc(OC)cc4)c4cccc(C(F)(F)F)c4)cc3)cc2)c2cccc(C(F)(F)F)c2)cc1`, 134 °C.
`Cc1cc2c(cc1C)n(C1CCNCC1)c(=O)n2C` yielded a melting point of 171 to 172 °C.
Then `CCCCCCc1ccc(O)c(C(=O)O)c1`, with 83 to 84 °C.
Then `Cc1ccc(CNC(=O)C(=O)NCCc2ccccn2)n1C`, with 147 to 149 °C.
For `CCOC(=O)CC(C)N=c1sc2ccc(Cl)cc2s1` (stereo not drawn) the value was 60 to 61 °C.
Take `CCCc1cn(C)cc(-c2cccc(C(F)(F)F)c2)c1=O`: the melting point lay within 45 to 47 °C.
For `Cc1cccc(C(=O)O)c1N(C)S(=O)(=O)c1ccc(OCCCCNC(=O)c2ccc3c(c2)OCO3)cc1` the value was 110 °C; for `COc1ccnc(CCc2nc3cccnc3[nH]2)c1`, 116 to 117 °C; for `CCOC(=O)c1cc(O)c(C(=O)c2ccc(C)cc2)c([N+](=O)[O-])c1`, 145 to 147 °C.
Then `CC(C)(Cc1ccc(OCCCC(=O)O)cc1)NCC(O)c1cc(O)cc2c1OCC(=O)N2` (stereo not drawn), with 201 to 204 °C.
With `CC(NC(=O)c1ccc(Cl)cc1)c1cccc2ccccc12` (stereo not drawn), the melting point was in the range of 117 to 118 °C.
Then `CN(C)CC(=O)N1CCC(c2cc(F)ccc2F)(S(=O)(=O)c2ccc(Cl)cc2)CC1`, with 88 to 92 °C.
In turn, `Cn1ccc(Nc2n[nH]c3c(OCCc4ccccn4)cc(-c4ncccc4Cl)cc23)n1` displayed a melting point of 89 to 91 °C.
Turning to `COc1cc(Nc2nccc(-c3cccc(N)c3)n2)cc(OC)c1OC`, the melting point was in the range of 166 to 167 °C.
In turn, `Cc1cnc2n1-c1ccc(Cl)cc1C(c1ccccc1)=NC2` displayed a melting point of 190 to 191 °C.
For `CCOC(=O)C(F)(F)C(=O)[C@H](Cc1ccccc1)NC(=O)Cn1c(-c2cccc(C)c2)ncc(NC(=O)OCc2ccccc2)c1=O` the value was 138 to 140 °C; for `CC(=O)OCC(O)COc1ccc2nc(S(N)(=O)=O)sc2c1` (stereo not drawn), 173 to 175 °C; for `CN(C)c1ccc(C(NCCO)C(O)c2ccccc2)cc1` (stereo not drawn), 147 to 148 °C.
The compound `CCCc1cc(Cl)c2oc(C(=O)c3ccc(OC)cc3)c(C)c2c1OC(=O)c1ccc(OC)cc1` showed a melting point of 103 to 105 °C.
As for `Oc1ccc(-c2cc(F)c3cc(O)ccc3c2)cc1`, the melting point lay in the range of 236 to 238 °C.
For `N#Cc1ccc(CN2c3ccc(Cl)cc3C=C(C(=O)O)C2C(F)(F)F)cc1` (stereo not drawn) the value was 258 to 260 °C.
Then `COC(=O)c1ccc2c(c1)CN(C(=O)OCc1ccccc1)C2`, with 59 to 65 °C; and `CCOC(=O)NNc1ccc(-c2ccc(C#N)cc2)nn1`, with 235 °C.
Consider `O=C(O)C(CBr)(CBr)CBr`, for which the melting point lay within 83 to 86 °C.
For `COCCOc1cc(NS(=O)(=O)c2ccccn2)c2[nH]c(C(=O)NCC(CN3CCSCC3)SCc3ccccc3)cc2c1` (stereo not drawn) the value was 160 to 161 °C; for `O=C(O)C1=Cc2cc(Br)ccc2S(=O)(=O)CC1`, 290 to 300 °C; for `CCCCCCC(=O)N[C@@H](C(=O)OCc1ccccc1)[C@@H](C)O`, 70 to 73 °C.
For `COCOCc1nc(-c2ccccc2)oc1CO` the value was 70 to 71 °C; for `CC(C=O)=CC=CC(C)=CC=CC=C(C)C1OCC(C)(C)CO1`, 140 °C; for `CC1(C)CCC(C)(C)c2cc3c(cc21)OCC=C3Cc1ccc(C(=O)O)cc1`, 200 to 201 °C.
For `CCOCCc1cc(O)ccc1N` the value was 102 °C.
Turning to `CC(C)Oc1cc(-n2c(=O)[nH]c3c(c2=O)CCC3)c(F)cc1Cl`, the melting point was 215 to 217 °C.
The compound `CC(=O)N1CCn2nc(-c3ccc(F)cc3)c(-c3ccncc3)c2N1` yielded a melting point of 216 to 218 °C.
In the case of `O=C(O)Cc1cc(C(=O)c2ccc(I)c([N+](=O)[O-])c2)sc1-c1ccccc1`, the melting point lay within 100 to 103 °C.
Then `CC1CCCN(C(=O)C2Cc3cc(O)ccc3N2c2ccc(=O)n(C)n2)C1` (stereo not drawn), with 253 to 256 °C; and `Nc1ncnc2ncn(COCCO)c12`, with 122 to 123 °C.
Then `CC(NC(=O)C(CS)C(C)c1ccc(F)c(F)c1)C(=O)O` (stereo not drawn), with 61 °C; and `CCN(CC)CCN1c2cc(Cl)ccc2S[C@H]2[C@@H](O)[C@H](O)[C@@H](COC(C)=O)O[C@H]21`, with 180 °C.
Then `Cc1cc(-c2cc(C(F)(F)F)nc(-c3cccc(-c4ccc(S(N)(=O)=O)s4)c3)n2)ccc1C(F)(F)F`, with 216 °C.
On to `FC(F)(Br)C(F)(F)Oc1ccc(C2(c3ccc(OC(F)(F)C(F)(F)Br)cc3)c3ccccc3-c3ccccc32)cc1`, for which the melting point lay within 157 to 158 °C.
For `COc1ccccc1NC(=O)c1ccncc1` the value was 79 to 80 °C.
In turn, `COC(=O)C(=CNc1ccc(F)cc1)C(=O)C=Cc1ccc(Cl)cc1` returned a melting point of 166 to 168 °C.
For `O=c1[nH]c(-c2ccc(F)cc2)nc2ccc(CN3CCOCC3)cc12` the value was 322 to 323 °C.
For `NC1=NN(c2nc3ccccc3s2)CC1` the value was 232 to 235 °C; for `CCCOc1c(OC)cc(C=O)cc1S(=O)(=O)CCO`, 111 to 112 °C; for `Cn1cncc1C(N)(c1ccc(Cl)cc1)c1ccc2c(c1)c(-c1nc(-c3ccccc3)cs1)cc(=O)n2C` (stereo not drawn), 237 °C.
For `O=C(CCN1CCN(c2ncc(F)cn2)CC1)Cc1ccc(F)c2ccccc12` the value was 119 to 120 °C.
Take `Cc1ccc(-c2cn(C)c(-c3ccc(C)s3)n2)s1`: the melting point fell in the range of 138 to 140 °C.
For `COc1ccc2c3c(oc2c1)CCC(C(=O)O)=C3` the value was 228 to 231 °C; for `CCOC(=O)c1c(CCc2ccc(O)cc2)oc2ccc(C#N)cc12`, 182 to 183 °C.
